Assay results taken from US20240316047A1, “INHIBITORS OF RNA HELICASE DHX9 AND USES THEREOF” (ACCENT THERAPEUTICS, INC., priority 2022, published 2024).

Molecular target: Human recombinant DHX9 protein (Homo sapiens (Human), UniProt Q08211)
Test: DHX9 ATPase assay (ADP-Glo)
Type: biochemical
Settings: for IC50: read-out: DHX9 Biochemical Inflection Point

Human recombinant DHX9 protein, sequence (Q08211 whole entry): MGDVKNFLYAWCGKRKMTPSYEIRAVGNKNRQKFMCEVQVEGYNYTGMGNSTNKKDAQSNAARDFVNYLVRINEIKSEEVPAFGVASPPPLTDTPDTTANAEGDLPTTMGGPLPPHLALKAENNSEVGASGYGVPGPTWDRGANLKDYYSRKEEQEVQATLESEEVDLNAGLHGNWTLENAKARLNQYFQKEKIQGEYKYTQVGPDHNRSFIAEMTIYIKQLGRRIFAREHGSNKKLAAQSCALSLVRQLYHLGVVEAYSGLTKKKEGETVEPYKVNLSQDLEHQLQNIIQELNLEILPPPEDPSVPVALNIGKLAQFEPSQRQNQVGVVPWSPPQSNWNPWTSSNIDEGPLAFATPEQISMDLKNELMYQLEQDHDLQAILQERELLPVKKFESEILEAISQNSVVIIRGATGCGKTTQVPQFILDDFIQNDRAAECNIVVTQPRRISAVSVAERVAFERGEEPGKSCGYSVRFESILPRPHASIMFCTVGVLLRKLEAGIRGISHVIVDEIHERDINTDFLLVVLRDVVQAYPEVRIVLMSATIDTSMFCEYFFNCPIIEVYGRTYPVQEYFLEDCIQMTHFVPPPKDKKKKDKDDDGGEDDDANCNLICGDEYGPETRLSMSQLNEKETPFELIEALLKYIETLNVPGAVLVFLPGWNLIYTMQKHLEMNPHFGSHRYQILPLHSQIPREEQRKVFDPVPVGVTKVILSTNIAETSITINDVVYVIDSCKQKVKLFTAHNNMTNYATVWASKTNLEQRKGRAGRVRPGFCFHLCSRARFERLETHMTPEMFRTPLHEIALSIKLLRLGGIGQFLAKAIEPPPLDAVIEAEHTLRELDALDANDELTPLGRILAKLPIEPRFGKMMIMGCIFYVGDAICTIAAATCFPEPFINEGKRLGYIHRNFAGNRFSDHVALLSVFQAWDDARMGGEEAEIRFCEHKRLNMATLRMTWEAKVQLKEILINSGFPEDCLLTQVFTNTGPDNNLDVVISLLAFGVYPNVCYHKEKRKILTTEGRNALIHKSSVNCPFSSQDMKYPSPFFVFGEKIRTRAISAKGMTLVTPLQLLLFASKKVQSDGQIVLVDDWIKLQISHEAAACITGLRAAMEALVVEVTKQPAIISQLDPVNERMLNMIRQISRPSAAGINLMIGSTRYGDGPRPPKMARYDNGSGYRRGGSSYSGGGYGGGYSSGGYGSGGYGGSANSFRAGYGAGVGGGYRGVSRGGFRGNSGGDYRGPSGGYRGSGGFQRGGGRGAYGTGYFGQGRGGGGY

CS(=O)(=O)Nc1cc(Cl)cc(NC(=O)c2cnn([C@@H]3CCCC[C@H]3O)c2)c1 (relative stereo) [Example 150, N-(3-chloro-5-(methylsulfonamido)phenyl)-1-(trans-2-hydroxycyclohexyl)-1H-pyrazole-4-carboxamide]
DHX9 Biochemical Max Inhibition: 65.9%

CS(=O)(=O)Nc1cc(Cl)cc(NC(=O)c2cnn([C@H]3CCC[C@H](O)C3)c2)c1 (single isomer, unassigned) [Example 152a]
DHX9 Biochemical Max Inhibition: 63.2% | IC50: 138 nM

CS(=O)(=O)Nc1cc(Cl)cc(NC(=O)c2cnn([C@H]3CCC[C@@H](O)C3)c2)c1 (single isomer, unassigned) [Example 152b]
DHX9 Biochemical Max Inhibition: 69.9% | IC50: 126 nM

CS(=O)(=O)Nc1cc(Cl)cc(NC(=O)c2cnn([C@H]3CCC[C@H]3Oc3ccccc3)c2)c1 (single isomer, unassigned) [Example 259]
DHX9 Biochemical Max Inhibition: 69.2%

CS(=O)(=O)Nc1cc(Cl)cc(NC(=O)c2cnn([C@H]3CCC[C@H]3c3ccccc3)c2)c1 (single isomer, unassigned) [Example 260]
DHX9 Biochemical Max Inhibition: 50%

CS(=O)(=O)Nc1cc(Cl)cc(NC(=O)c2cnn([C@@H]3CC[C@H]3O)c2)c1 (single isomer, unassigned) [Example 306a]
DHX9 Biochemical Max Inhibition: 70.6% | IC50: 127 nM

CS(=O)(=O)Nc1cc(Cl)cc(NC(=O)c2cnn([C@H]3CC[C@H]3O)c2)c1 (single isomer, unassigned) [Example 306b]
DHX9 Biochemical Max Inhibition: 74.2% | IC50: 253 nM

Cc1sc(C(=O)Nc2cc(Cl)cc(NS(C)(=O)=O)c2)cc1-c1ncccc1OC(C)c1cc(F)cc(F)c1 (single isomer, unassigned) [Example 632]
DHX9 Biochemical Max Inhibition: 71.5 | IC50: 241 nM

Cc1sc(C(=O)Nc2cc(Cl)cc(NS(C)(=O)=O)c2)cc1-c1ncccc1OC(C)c1cc(F)cc(F)c1 (single isomer, unassigned) [Example 633]
DHX9 Biochemical Max Inhibition: 71.2 | IC50: 52.6 nM

CS(=O)(=O)Nc1cc(Cl)cc(NC(=O)c2cn(-c3ccccc3)cn2)c1 [Example 1, N-(3-chloro-5-(methylsulfonamido)phenyl)-1-phenyl-1H-imidazole-4-carboxamide]
DHX9 Biochemical Max Inhibition: 48.3% | IC50: 320 nM

CS(=O)(=O)Nc1cc(F)cc(NC(=O)c2c[nH]c(Br)c2)c1 [Example 2]
DHX9 Biochemical Max Inhibition: 64.8% | IC50: 173 nM

Cc1cc(C(=O)Nc2cc(F)cc(NS(C)(=O)=O)c2)n[nH]1 [Example 3]
DHX9 Biochemical Max Inhibition: 76.4% | IC50: 648 nM

CS(=O)(=O)Nc1cc(F)cc(NC(=O)c2cc(Br)[nH]n2)c1 [Example 4]
DHX9 Biochemical Max Inhibition: 64.1% | IC50: 4820 nM

Cc1cc(C(=O)Nc2cc(F)cc(NS(C)(=O)=O)c2)c[nH]1 [Example 5]
DHX9 Biochemical Max Inhibition: 74.6% | IC50: 215 nM

CS(=O)(=O)Nc1cc(Cl)cc(NC(=O)c2c[nH]c(-c3ccccc3)n2)c1 [Example 6]
DHX9 Biochemical Max Inhibition: 52.5% | IC50: 91.7 nM

CS(=O)(=O)Nc1cc(Cl)cc(NC(=O)c2cc(-c3ccccc3)co2)c1 [Example 7]
DHX9 Biochemical Max Inhibition: 46.4% | IC50: 380 nM

CS(=O)(=O)Nc1cc(Cl)cc(NC(=O)c2cc(-c3ccccc3)c[nH]2)c1 [Example 8]
DHX9 Biochemical Max Inhibition: 54.4% | IC50: 395 nM

CS(=O)(=O)Nc1cc(Cl)cc(NC(=O)c2nc(-c3ccccc3)c[nH]2)c1 [Example 9]
DHX9 Biochemical Max Inhibition: 44.5% | IC50: 390 nM

Cc1ccc(C(=O)Nc2cc(Br)cc(NS(C)(=O)=O)c2)cc1-n1cccn1 [Example 10]
DHX9 Biochemical Max Inhibition: 61% | IC50: 133 nM

Cc1sc(C(=O)Nc2cc(Cl)cc(NS(C)(=O)=O)c2)cc1-c1ccccc1 [Example 11]
DHX9 Biochemical Max Inhibition: 62.7% | IC50: 123 nM

CS(=O)(=O)Nc1cc(Br)cc(NC(=O)C2CCC2c2ccccc2)c1 (stereo not shown) [Example 12]
DHX9 Biochemical Max Inhibition: 58.6% | IC50: 84700 nM

CS(=O)(=O)Nc1cc(Cl)cc(NC(=O)c2cccc(-c3cccc(C#N)c3)c2)c1 [Example 13]
DHX9 Biochemical Max Inhibition: 41.7% | IC50: 1150 nM

CS(=O)(=O)Nc1cc(Cl)cc(NC(=O)c2cccc(-c3ccncc3)c2)c1 [Example 14]
DHX9 Biochemical Max Inhibition: 59.6% | IC50: 353 nM

CS(=O)(=O)Nc1cc(I)cc(NC(=O)c2cc(-c3ccccc3)cs2)c1 [Example 16]
DHX9 Biochemical Max Inhibition: 46.3% | IC50: 251 nM

CS(=O)(=O)Nc1cc(Br)cc(NC(=O)c2cc(-c3cnccn3)cs2)c1 [Example 18]
DHX9 Biochemical Max Inhibition: 61% | IC50: 8.6 nM

Cc1cccc(O)c1-c1csc(C(=O)Nc2cc(Br)cc(NS(C)(=O)=O)c2)c1 [Example 19]
DHX9 Biochemical Max Inhibition: 53.5% | IC50: 115 nM

Cc1sc(C(=O)Nc2cc(Br)cc(NS(C)(=O)=O)c2)cc1-c1ccccc1O [Example 20]
DHX9 Biochemical Max Inhibition: 62.5% | IC50: 57.2 nM

CS(=O)(=O)Nc1cc(Br)cc(NC(=O)c2cc(-c3ccccc3O)cs2)c1 [Example 21]
DHX9 Biochemical Max Inhibition: 61.7% | IC50: 33.2 nM

Cc1sc(C(=O)Nc2cc(Cl)cc(NS(C)(=O)=O)c2)cc1-c1ncccn1 [Example 22]
DHX9 Biochemical Max Inhibition: 71% | IC50: 2.5 nM

Cc1sc(C(=O)Nc2cc(Br)cc(NS(C)(=O)=O)c2)cc1-c1ccccn1 [Example 23]
DHX9 Biochemical Max Inhibition: 69% | IC50: 3.2 nM

CS(=O)(=O)Nc1cc(Br)cc(NC(=O)c2cc(-c3ncccn3)cs2)c1 [Example 25]
DHX9 Biochemical Max Inhibition: 61.3% | IC50: 5.6 nM

CS(=O)(=O)Nc1cc(Cl)cc(NC(=O)c2cc(-c3ncccn3)cs2)c1 [Example 26]
DHX9 Biochemical Max Inhibition: 65.6% | IC50: 1.8 nM

CCS(=O)(=O)Nc1cc(Cl)cc(NC(=O)c2cc(-c3ncccn3)c(C)s2)c1 [Example 27]
DHX9 Biochemical Max Inhibition: 68% | IC50: 6.4 nM

CCS(=O)(=O)Nc1cc(Cl)cc(NC(=O)c2cc(-c3ccccn3)c(C)s2)c1 [Example 28]
DHX9 Biochemical Max Inhibition: 68.3% | IC50: 4.2 nM

CS(=O)(=O)Nc1cc(Cl)cc(NC(=O)c2cc(-c3ncccc3OCc3ccccc3)cs2)c1 [Example 29]
DHX9 Biochemical Max Inhibition: 65.2% | IC50: 48.2 nM

CS(=O)(=O)Nc1cc(Br)cc(NC(=O)c2cc(-c3ccccc3OCc3ccccc3)cs2)c1 [Example 30]
DHX9 Biochemical Max Inhibition: 40.5% | IC50: 787 nM

CS(=O)(=O)Nc1cc(Br)cc(NC(=O)c2cc(-c3ncccc3OCc3ccccc3)cs2)c1 [Example 32]
DHX9 Biochemical Max Inhibition: 56.3% | IC50: 38.3 nM

Cc1cccnc1-c1csc(C(=O)Nc2cc(Br)cc(NS(C)(=O)=O)c2)c1 [Example 33]
DHX9 Biochemical Max Inhibition: 61.7% | IC50: 4.8 nM

Cc1sc(C(=O)Nc2cc(Cl)cc(NS(C)(=O)=O)c2)cc1-c1ncccc1OCc1ccccc1 [Example 34]
DHX9 Biochemical Max Inhibition: 75.2% | IC50: 6.3 nM

Cc1sc(C(=O)Nc2cc(Cl)cc(NS(C)(=O)=O)c2)cc1-c1ccc(F)cn1 [Example 35]
DHX9 Biochemical Max Inhibition: 75.7% | IC50: 3.9 nM

CS(=O)(=O)Nc1cc(Br)cc(NC(=O)c2cnn(-c3ccccn3)c2)c1 [Example 36, N-(3-bromo-5-(methylsulfonamido)phenyl)-1-(pyridin-2-yl)-1H-pyrazole-4-carboxamide]
DHX9 Biochemical Max Inhibition: 56.86% | IC50: 28 nM

CS(=O)(=O)Nc1cc(Cl)cc(NC(=O)c2cnn(-c3ccccn3)c2)c1 [Example 37]
DHX9 Biochemical Max Inhibition: 62.6% | IC50: 47.9 nM

CS(=O)(=O)Nc1cc(Br)cc(NC(=O)c2cnn(-c3cc(C#N)ccn3)c2)c1 [Example 38]
DHX9 Biochemical Max Inhibition: 44.7% | IC50: 65.5 nM

CS(=O)(=O)Nc1cc(Br)cc(NC(=O)c2cnn(-c3ccc(F)cn3)c2)c1 [Example 39]
DHX9 Biochemical Max Inhibition: 52.3% | IC50: 70.1 nM

CS(=O)(=O)Nc1cc(Br)cc(NC(=O)c2cnn(-c3cnccn3)c2)c1 [Example 40]
DHX9 Biochemical Max Inhibition: 60% | IC50: 15.7 nM

CS(=O)(=O)Nc1cc(Br)cc(NC(=O)c2cnn(-c3ccc(C#N)cn3)c2)c1 [Example 41]
DHX9 Biochemical Max Inhibition: 40.3% | IC50: 47.4 nM

Cc1ccc(-n2cc(C(=O)Nc3cc(Br)cc(NS(C)(=O)=O)c3)cn2)nc1 [Example 42]
DHX9 Biochemical Max Inhibition: 48.7% | IC50: 18.7 nM

CS(=O)(=O)Nc1cc(Br)cc(NC(=O)c2cnn(-c3ccc(C(F)(F)F)cn3)c2)c1 [Example 43]
DHX9 Biochemical Max Inhibition: 49.8% | IC50: 258 nM

Cc1cccc(C#N)c1-n1cc(C(=O)Nc2cc(Br)cc(NS(C)(=O)=O)c2)cn1 [Example 44]
DHX9 Biochemical Max Inhibition: 60.3% | IC50: 137 nM

Cc1cccnc1-n1cc(C(=O)Nc2cc(Br)cc(NS(C)(=O)=O)c2)cc1C [Example 45]
DHX9 Biochemical Max Inhibition: 67.4% | IC50: 16.4 nM
